Experimental data: ChEMBL document CHEMBL1201862, “PubChem BioAssay data set” (2004)
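A five-concentration, 48-hour dose response in 96-well plates underlies each endpoint, interpolated linearly between surrounding concentrations. GI50: concentration for 50% inhibition of growth.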 Calls of active or inactive are those of the source. No stated cut-off is given here; in the data, active = GI50 up to about 1.1 µM and inactive = higher.

What was measured:
Assay in all cases: DTP human tumour cell line panel, 48 h
K562 = system: K562
HT-29 = system: HT-29
DU-145 = system: DU-145
EKVX = system: EKVX
MDA-MB-231 = system: MDA-MB-231
MDA-MB-435 = system: MDA-MB-435
NCI-H23 = system: NCI-H23
OVCAR-8 = system: OVCAR-8
Hs-578T = system: Hs-578T
NCI-H226 = system: NCI-H226
KM12 = system: KM12
A549 = system: A549
HL-60 = system: HL-60
HCC 2998 = system: HCC 2998
IGROV-1 = system: IGROV-1
CAKI-1 = system: CAKI-1
SK-OV-3 = system: SK-OV-3
HCT-116 = system: HCT-116
CCRF-CEM = system: CCRF-CEM

SMILES	GI50 (K562)	GI50 (HT-29)	GI50 (DU-145)	GI50 (EKVX)	GI50 (MDA-MB-231)	GI50 (MDA-MB-435)	GI50 (NCI-H23)	GI50 (OVCAR-8)	GI50 (Hs-578T)	GI50 (NCI-H226)	GI50 (KM12)	GI50 (A549)	GI50 (HL-60)	GI50 (HCC 2998)	GI50 (IGROV-1)	GI50 (CAKI-1)	GI50 (SK-OV-3)	GI50 (HCT-116)	GI50 (CCRF-CEM)
O=C(O)c1cc(-c2ccc3c(O)ccc(O)c3c2)ccc1O	5.14 µM (inactive)	18.8 µM (inactive)	24 µM (inactive)	18.2 µM (inactive)	23.2 µM (inactive)	17.5 µM (inactive)	25.8 µM (inactive)	23.7 µM (inactive)	18.7 µM (inactive)	19.7 µM (inactive)	20.3 µM (inactive)	33.5 µM (inactive)	> 100 µM (inactive)	16.4 µM (inactive)	16.7 µM (inactive)	16.6 µM (inactive)	> 10 µM (inactive)	16.8 µM (inactive)	1.87 µM (inactive)
COc1cc2cc(C(=O)N3CC(COS(C)(=O)=O)c4c3cc([N+](=O)[O-])c3ccccc43)[nH]c2c(OC)c1OC (stereo not drawn)	> 100 µM (inactive)	6.15 µM (inactive)	0.553 µM (active)	> 31.6 µM (inactive)	60.4 µM (inactive)	> 31.6 µM (inactive)	2.78 µM (inactive)	2.15 µM (inactive)	> 31.6 µM (inactive)	> 100 µM (inactive)	30.1 µM (inactive)	2.81 µM (inactive)	0.794 µM (active)	0.291 µM (active)	23.5 µM (inactive)	0.398 µM (active)	61.9 µM (inactive)	1.24 µM (inactive)	0.778 µM (active)
CCOC(=O)/C(C(=O)Nc1cccc(Cl)c1)=C(/N)N1CCOCC1	> 100 µM (inactive)	> 100 µM (inactive)	> 100 µM (inactive)	> 100 µM (inactive)	> 100 µM (inactive)	> 100 µM (inactive)	> 100 µM (inactive)	> 100 µM (inactive)	> 100 µM (inactive)	> 100 µM (inactive)	> 100 µM (inactive)	> 100 µM (inactive)	> 100 µM (inactive)	> 100 µM (inactive)	> 100 µM (inactive)	> 100 µM (inactive)	> 100 µM (inactive)	> 100 µM (inactive)	> 100 µM (inactive)
CC1(C)CCC2=C(O1)/C(=N\Nc1ccc(F)cc1)c1ccccc1C2=O	49.5 µM (inactive)	18.9 µM (inactive)	18.4 µM (inactive)	22.4 µM (inactive)	46.7 µM (inactive)	18.1 µM (inactive)	25.2 µM (inactive)	41.8 µM (inactive)	28.4 µM (inactive)	> 100 µM (inactive)	31.3 µM (inactive)	16.1 µM (inactive)	16 µM (inactive)	21.9 µM (inactive)	31.9 µM (inactive)	40.4 µM (inactive)	54.7 µM (inactive)	31.3 µM (inactive)	11.8 µM (inactive)
COC(=O)[C@H]1[C@@H](C(C)C)O[C@@H](C(C)C)O[C@H]1C(F)(F)F	> 100 µM (inactive)	> 100 µM (inactive)	> 100 µM (inactive)	> 100 µM (inactive)	> 100 µM (inactive)	> 100 µM (inactive)	> 100 µM (inactive)	> 100 µM (inactive)	> 100 µM (inactive)	> 100 µM (inactive)	> 100 µM (inactive)	> 100 µM (inactive)	> 100 µM (inactive)	> 100 µM (inactive)	37.9 µM (inactive)	> 100 µM (inactive)	> 100 µM (inactive)	> 100 µM (inactive)	> 100 µM (inactive)
Nc1nc(Cl)c(N)c(NCC2(CO)CC2)n1	> 100 µM (inactive)	> 100 µM (inactive)	> 100 µM (inactive)	> 100 µM (inactive)	> 100 µM (inactive)	> 100 µM (inactive)	> 100 µM (inactive)	> 100 µM (inactive)	> 100 µM (inactive)	> 100 µM (inactive)	> 100 µM (inactive)	> 100 µM (inactive)	> 100 µM (inactive)	> 100 µM (inactive)	> 100 µM (inactive)	> 100 µM (inactive)	> 100 µM (inactive)	> 100 µM (inactive)	> 100 µM (inactive)
C=CC(OC(C)=O)c1ccc(OC(=O)C(C)C)c(OC)c1 (stereo not drawn)	3.15 µM (inactive)	2.31 µM (inactive)	11.5 µM (inactive)	7.5 µM (inactive)	4.72 µM (inactive)	5.73 µM (inactive)	9.4 µM (inactive)	4.81 µM (inactive)	6.64 µM (inactive)	19.6 µM (inactive)	2.67 µM (inactive)	18.8 µM (inactive)	2.79 µM (inactive)	11.2 µM (inactive)	12.9 µM (inactive)	1.77 µM (inactive)	16.6 µM (inactive)	5.85 µM (inactive)	2.01 µM (inactive)
